Results reported in article PMC6133161, “Thiazoles with cyclopropyl fragment as antifungal, anticonvulsant, and anti-Toxoplasma gondii agents: synthesis, toxicity evaluation, and molecular docking study” (Medicinal Chemistry Research, 2018).

Test system: all tested strains of Candida
Assay: Antifungal screening, all strains
Format: cell-based
Text: The examined compounds 3a–3j were screened in vitro for antibacterial and antifungal activities using the broth microdilution method according to European Committee on Antimicrobial Susceptibility Testing (EUCAST) (EUCAST [2003]) and Clinical and Laboratory Standards Institute guidelines (CLSI [2012]) against reference strains of microorganisms from American Type Culture Collection (ATCC), including fungi belonging to yeasts (Candida albicans ATCC 2091, Candida albicans ATCC 10231, Candida parapsilosis ATCC 22019 and Candida krusei ATCC 14243).
In the study of antifungal activity of the compounds 3a–3j, 15 clinical strains of different species of yeasts from Candida species, namely C. albicans, C. dubliniensis C. famata, C. inconspicua, C. krusei, C. tropicalis, C. glabrata, C. lambica, C. kefyr, C. lusitaniae, C. parapsilosis, C. guilliermondii, C. lusitaniae, C. pulcherrima and C. sake were also used. […] After incubation, the MIC was assessed spectrophotometric as the lowest concentration of the samples showing complete fungal growth inhibition. […] MFC was determined by removing the culture using for MIC determinations from each well and spotting onto appropriate agar medium. […] The lowest compounds concentration with no visible growth observed was assessed as a fungicidal concentration. […]

SMILES: FC(F)(F)c1ccc(-c2csc(N/N=C/C3CC3)n2)cc1 [Compound 3e, (E)-2-(2-(Cyclopropylmethylene)hydrazinyl)-4-(4-(trifluoromethyl)phenyl)thiazole]
- antifungal activity: inactive
